Patent US8029768B2, “Treatment of respiratory diseases” (Sosei R&D Ltd., priority 2000, dated 2011)

Legend:
[1] = about 1 mg sample on sinter, 195 ml water reservoir, FIG. 1
Experimental: A 195 ml reservoir was used in the dissolution test. The reservoir was filled with water and contained a sampling inlet port and a sampling outlet port. A sintered disk of approximately 50 mm diameter and 3 mm depth was placed in an opening on top of the reservoir, in contact with the water. A known mass (about 1 mg) of the sample to be tested was dropped onto the sinter and a timer started. At various times, 1 ml samples were removed from the reservoir and immediately replaced with 1 ml of water to maintain the volume in the system. The samples were analysed in a Cecil Aquarius CE7200 ultraviolet spectrophotometer at a wavelength of 200 nm. The concentration of the samples was calculated with a previously prepared calibration graph and the concentration versus time was plotted.

[2] = test system: asthma; conditions: inhaled, Walker et al. 1987; cited from earlier work

time at which the maximum concentration is achieved [1]: 10 min
concentration of glycopyrrolate in the reservoir at 5 minutes ([1]; first time point 5 minutes): greater than 10 mg/l
Compound: C[N+]1(C)CCC(OC(=O)C(O)(c2ccccc2)C2CCCC2)C1 (stereo not shown) [glycopyrrolate]
duration of effective treatment [2]: up to 12 hours
duration of effective treatment that appears to be maximal [2]: up to 8 hours
